Source: ChEMBL document CHEMBL3046205, “4-pyridyl carbonyl and related compounds as thrips lures: effectiveness for onion thrips and new zealand flower thrips in field experiments” (2007)

Tests used:
Format in all cases: functional
[1] = test system: Thrips tabaci; experiment: Thrips luring activity against female Thrips tabaci (onion thrips) assessed as ratio of thrips in baited traps to unbaited traps during field trapping study
[2] = test system: Thrips obscuratus; experiment: Thrips luring activity against male New Zealand Thrips obscuratus (flower thrips) assessed as ratio of thrips in baited traps to unbaited traps during field trapping study
[3] = test system: Thrips obscuratus; experiment: Thrips luring activity against female New Zealand Thrips obscuratus (flower thrips) assessed as ratio of thrips in baited traps to unbaited traps during field trapping study

Structure (SMILES) | Ratio [1] | Ratio [2] | Ratio [3]
CC(=O)c1ccccc1N [2-AMINOACETOPHENONE] | 6 | 26.7 | 20.7
OCCc1ccncc1 [4-(2-HYDROXYETHYL)PYRIDINE] | 1.3 | 0 | 0
O=Cc1ccncc1 [4-FORMYLPYRIDINE] | 1.6 | 4.9 | 7.9
CC(=O)/C=C/C1C(C)=CCCC1(C)C (stereo not drawn) [ALPHA-IONONE] | 1.3 | 0 | 1.8
COc1ccc(C=O)cc1 [ANISALDEHYDE] | 4 | 22.6 | 26.2
O=Cc1ccccc1 [BENZALDEHYDE] | 4 | 3.6 | 5
CC(=O)/C=C/C1=C(C)CCCC1(C)C [BETA-IONONE] | 2.6 | 3.8 | 1.8
ClC(Cl)Cl [CHLOROFORM] | 1.1 | 10.1 | 0
CC/C=C\CC1=C(C)CCC1=O [CIS-JASMONE] | 1.2 | 24.5 | 42.1
CCC(=O)c1ccncc1 [ETHYL 4-PYRIDYLKETONE] | 13.5 | 0 | 19.4
CCOC(=O)c1ccccc1N [ETHYL ANTHRANILATE] | 1.1 | 0.6 | 1.6
CCOC(=O)c1ccccc1 [ETHYL BENZOATE] | 2.1 | 24.8 | 35.4
CCOC(=O)c1ccncc1 [ETHYL ISONICOTINATE] | 30.8 | 28.5 | 31.6
CCOC(=O)C1CCNCC1 [ETHYL ISONIPECOTATE] | 4 | 0 | 0
CCOC(=O)c1cccnc1 [ETHYL NICOTINATE] | 3.1 | 84.8 | 157.6
CCOC(=O)c1ccccn1 [ETHYL PICOLINATE] | 2.8 | 5.9 | 4.1

Structure (SMILES) | Ratio [1] | Ratio [2] | Ratio [3]
CCOC(=O)c1ccccc1O [ETHYL SALICYLATE] | 3 | 48.5 | 32.6
CCOC(=O)c1ccnc(Cl)c1 [ETHYL-2-CHLOROPYRIDINE-4-CARBOXYLATE] | 1.7 | 19.3 | 15.1
CCCCCCOC(=O)c1ccncc1 [ISONICOTINIC ACID HEXYL ESTER] | 1.2 | 0 | 0
N#Cc1ccncc1 [ISONICOTINONITRILE] | 2.4 | 19.9 | 0
CC(C)OC(=O)c1ccncc1 [ISOPROPYL ISONICOTINATE] | 8.8 | 0 | 9
CC(=O)c1ccncc1 [METHYL 4-PYRIDYLKETONE] | 7.6 | 10.3 | 0
COC(=O)c1ccccc1N [METHYL ANTHRANILATE] | 3.5 | 22.1 | 28.3
COC(=O)c1ccccc1 [METHYL BENZOATE] | 6.6 | 50.5 | 49.1
COC(=O)c1ccncc1 [METHYL ISONICOTINATE] | 18.9 | 5.1 | 44.1
CC/C=C\CC1C(=O)CCC1CC(=O)OC (stereo unspecified) [METHYL JASMONATE] | 0.7 | 0.9 | 0.8
COC(=O)c1ccccc1O [METHYL SALICYLATE] | 4 | 13.3 | 24.8
CCCCCCCCCCOC(=O)c1ccncc1 [N-DECYL ISONICOTINATE] | 6.8 | 0 | 14.9
CCCOC(=O)c1ccncc1 [N-PROPYL ISONICOTINATE] | 15.4 | 0 | 9
OCCc1ccccc1 [PHENYLETHYL ALCOHOL] | 3.8 | 9.5 | 9.8
c1cc(C2OCCO2)ccn1 [PYRIDINE, 4-(1,3-DIOXALAN-2-YL)] | 5.3 | 20.4 | 16.6
O=Cc1ccccc1O [SALICYLADEHYDE] | 1.9 | 15.7 | 20.7
